Experimental data as given in ChEMBL document CHEMBL4325853, “Design, synthesis and antibacterial evaluation of 2,4-disubstituted-6-thiophenyl-pyrimidines” (Eur J Med Chem, 2019).

Tests used:
Type in all cases: functional
[1] = test system: Staphylococcus aureus; assay: Antibacterial activity against methicillin-resistant Staphylococcus aureus isolate 7947 after 18 hrs by broth microdilution method; conditions: isolate 7947, 18 h
[2] = test system: Staphylococcus aureus; assay: Antibacterial activity against methicillin-resistant Staphylococcus aureus isolate 8162 after 18 hrs by broth microdilution method; conditions: isolate 8162, 18 h
[3] = test system: Staphylococcus aureus; assay: Antibacterial activity against methicillin-resistant Staphylococcus aureus ATCC 43300 after 18 hrs by broth microdilution method; conditions: ATCC 43300, 18 h
[4] = test system: Staphylococcus aureus; assay: Antibacterial activity against methicillin-resistant Staphylococcus aureus isolate 1947 after 18 hrs by broth microdilution method; conditions: isolate 1947, 18 h
[5] = test system: Staphylococcus aureus; assay: Antibacterial activity against methicillin-resistant Staphylococcus aureus isolate 7844 after 18 hrs by broth microdilution method; conditions: isolate 7844, 18 h
[6] = test system: Staphylococcus aureus; assay: Antibacterial activity against Staphylococcus aureus ATCC 29213 after 18 hrs by broth microdilution method; conditions: ATCC 29213, 18 h
[7] = test system: Staphylococcus aureus; assay: Antibacterial activity against methicillin-resistant Staphylococcus aureus isolate 3170 after 18 hrs by broth microdilution method; conditions: isolate 3170, 18 h
[8] = test system: Staphylococcus aureus; assay: Antibacterial activity against methicillin-resistant Staphylococcus aureus isolate 5035 after 18 hrs by broth microdilution method; conditions: isolate 5035, 18 h
[9] = test system: Staphylococcus aureus; assay: Antibacterial activity against methicillin-resistant Staphylococcus aureus isolate 8078 after 18 hrs by broth microdilution method; conditions: isolate 8078, 18 h
[10] = test system: Staphylococcus aureus; assay: Antibacterial activity against methicillin-resistant Staphylococcus aureus isolate 5426 after 18 hrs by broth microdilution method; conditions: isolate 5426, 18 h
[11] = test system: Staphylococcus aureus; assay: Antibacterial activity against methicillin-resistant Staphylococcus aureus isolate 4023 after 18 hrs by broth microdilution method; conditions: isolate 4023, 18 h
[12] = test system: Staphylococcus aureus; assay: Antibacterial activity against methicillin-resistant Staphylococcus aureus isolate 3123 after 18 hrs by broth microdilution method; conditions: isolate 3123, 18 h
[13] = test system: Staphylococcus aureus; assay: Antibacterial activity against methicillin-resistant Staphylococcus aureus isolate 7960 after 18 hrs by broth microdilution method; conditions: isolate 7960, 18 h
[14] = test system: Staphylococcus aureus; assay: Antibacterial activity against methicillin-resistant Staphylococcus aureus isolate 7664 after 18 hrs by broth microdilution method; conditions: isolate 7664, 18 h
[15] = test system: Staphylococcus aureus; assay: Antibacterial activity against methicillin-resistant Staphylococcus aureus isolate 5395 after 18 hrs by broth microdilution method; conditions: isolate 5395, 18 h
[16] = test system: Staphylococcus aureus; assay: Antibacterial activity against methicillin-resistant Staphylococcus aureus isolate 7943 after 18 hrs by broth microdilution method; conditions: isolate 7943, 18 h
[17] = test system: Staphylococcus aureus; assay: Antibacterial activity against methicillin-resistant Staphylococcus aureus isolate 7587 after 18 hrs by broth microdilution method; conditions: isolate 7587, 18 h
[18] = test system: Staphylococcus aureus; assay: Antibacterial activity against methicillin-resistant Staphylococcus aureus isolate 5056 after 18 hrs by broth microdilution method; conditions: isolate 5056, 18 h
[19] = test system: Staphylococcus aureus; assay: Antibacterial activity against methicillin-resistant Staphylococcus aureus isolate 8179 after 18 hrs by broth microdilution method; conditions: isolate 8179, 18 h
[20] = test system: Staphylococcus aureus; assay: Antibacterial activity against methicillin-resistant Staphylococcus aureus isolate 7183 after 18 hrs by broth microdilution method; conditions: isolate 7183, 18 h
[21] = test system: Staphylococcus aureus; assay: Antibacterial activity against methicillin-resistant Staphylococcus aureus isolate 7917 after 18 hrs by broth microdilution method; conditions: isolate 7917, 18 h
[22] = test system: Staphylococcus aureus; assay: Antibacterial activity against methicillin-resistant Staphylococcus aureus isolate 6334 after 18 hrs by broth microdilution method; conditions: isolate 6334, 18 h
[23] = test system: Staphylococcus aureus; assay: Antibacterial activity against methicillin-resistant Staphylococcus aureus isolate 1428 after 18 hrs by broth microdilution method; conditions: isolate 1428, 18 h
[24] = test system: Staphylococcus aureus; assay: Antibacterial activity against methicillin-resistant Staphylococcus aureus isolate 3096 after 18 hrs by broth microdilution method; conditions: isolate 3096, 18 h
[25] = test system: Staphylococcus aureus; assay: Antibacterial activity against methicillin-resistant Staphylococcus aureus isolate 7864 after 18 hrs by broth microdilution method; conditions: isolate 7864, 18 h
[26] = test system: Enterococcus faecium; assay: Antibacterial activity against Enterococcus faecium ATCC 49624 after 18 hrs by broth microdilution method; conditions: ATCC 49624, 18 h
[27] = test system: Staphylococcus aureus; assay: Antibacterial activity against methicillin-resistant Staphylococcus aureus isolate 7717 after 18 hrs by broth microdilution method; conditions: isolate 7717, 18 h
[28] = test system: Enterococcus faecalis; assay: Antibacterial activity against vancomycin-resistant Enterococcus faecalis ATCC 51575 after 18 hrs by broth microdilution method; conditions: ATCC 51575, 18 h
[29] = test system: Staphylococcus epidermidis; assay: Antibacterial activity against Staphylococcus epidermidis ATCC 12228 after 18 hrs by broth microdilution method; conditions: ATCC 12228, 18 h
[30] = test system: Staphylococcus aureus; assay: Antibacterial activity against methicillin-resistant Staphylococcus aureus isolate 7916 after 18 hrs by broth microdilution method; conditions: isolate 7916, 18 h
[31] = test system: Staphylococcus aureus; assay: Antibacterial activity against methicillin-resistant Staphylococcus aureus isolate 1651 after 18 hrs by broth microdilution method; conditions: isolate 1651, 18 h
[32] = test system: Staphylococcus aureus; assay: Antibacterial activity against methicillin-resistant Staphylococcus aureus ATCC BAA1720 after 18 hrs by broth microdilution method; conditions: ATCC BAA1720, 18 h
[33] = test system: Staphylococcus aureus; assay: Antibacterial activity against methicillin-resistant Staphylococcus aureus isolate 4127 after 18 hrs by broth microdilution method; conditions: isolate 4127, 18 h
[34] = test system: Staphylococcus aureus; assay: Antibacterial activity against methicillin-resistant Staphylococcus aureus isolate 7863 after 18 hrs by broth microdilution method; conditions: isolate 7863, 18 h
[35] = test system: Staphylococcus aureus; assay: Antibacterial activity against methicillin-resistant Staphylococcus aureus isolate 4548 after 18 hrs by broth microdilution method; conditions: isolate 4548, 18 h
[36] = test system: Staphylococcus aureus; assay: Antibacterial activity against methicillin-resistant Staphylococcus aureus ATCC 33592 after 18 hrs by broth microdilution method; conditions: ATCC 33592, 18 h
[37] = test system: Staphylococcus aureus; assay: Antibacterial activity against methicillin-resistant Staphylococcus aureus isolate 1708 after 18 hrs by broth microdilution method; conditions: isolate 1708, 18 h
[38] = test system: Staphylococcus aureus; assay: Antibacterial activity against methicillin-resistant Staphylococcus aureus isolate 7247 after 18 hrs by broth microdilution method; conditions: isolate 7247, 18 h
[39] = test system: Staphylococcus aureus; assay: Antibacterial activity against methicillin-resistant Staphylococcus aureus isolate 2671 after 18 hrs by broth microdilution method; conditions: isolate 2671, 18 h
[40] = test system: Staphylococcus aureus; assay: Potency index, ratio of methicillin MIC to test compound MIC for methicillin-resistant Staphylococcus aureus ATCC 33591
[41] = test system: Staphylococcus aureus; assay: Bactericidal activity against methicillin-resistant Staphylococcus aureus ATCC BAA41 after 18 hrs by broth microdilution method; conditions: ATCC BAA41, 18 h
[42] = test system: Staphylococcus epidermidis; assay: Potency index, ratio of berberine MIC to test compound MIC for Staphylococcus epidermidis ATCC 12228
[43] = test system: Staphylococcus aureus; assay: Potency index, ratio of methicillin MIC to test compound MIC for methicillin-resistant Staphylococcus aureus ATCC 43300
[44] = test system: Staphylococcus aureus; assay: Potency index, ratio of berberine MIC to test compound MIC for Staphylococcus aureus ATCC 29213
[45] = test system: Staphylococcus aureus; assay: Potency index, ratio of methicillin MIC to test compound MIC for methicillin-resistant Staphylococcus aureus ATCC 33592
[46] = test system: Enterococcus faecalis; assay: Potency index, ratio of berberine MIC to test compound MIC for Enterococcus faecalis ATCC 29212
[47] = test system: Enterococcus faecalis; assay: Ratio of MBC to MIC for vancomycin-resistant Enterococcus faecalis ATCC 700221

COc1cccc(OC)c1C(=O)N[C@@H]1C(=O)N2[C@@H]1SC(C)(C)[C@@H]2C(=O)O [METHICILLIN]
> 192 µg/mL: MIC90 [3] | MIC90 [32] | MIC90 [36]
6 µg/mL: MIC90 [28]
> 64 µg/mL: MIC90 [1] | MIC90 [2] | MIC90 [4] | MIC90 [5] | MIC90 [7] | MIC90 [8] | MIC90 [9] | MIC90 [10] | MIC90 [11] | MIC90 [12] | MIC90 [13] | MIC90 [14] | MIC90 [15] | MIC90 [16] | MIC90 [17] | MIC90 [18] | MIC90 [19] | MIC90 [20] | MIC90 [21] | MIC90 [22] | MIC90 [23] | MIC90 [24] | MIC90 [25] | MIC90 [27] | MIC90 [30] | MIC90 [31] | MIC90 [33] | MIC90 [34] | MIC90 [35] | MIC90 [37] | MIC90 [38] | MIC90 [39]
0.5 µg/mL: MIC90 [29]
1 µg/mL: MIC90 [6]
4 µg/mL: MIC90 [26]

CN[C@H](CC(C)C)C(=O)N[C@H]1C(=O)N[C@@H](CC(N)=O)C(=O)N[C@H]2C(=O)N[C@H]3C(=O)N[C@H](C(=O)N[C@H](C(=O)O)c4cc(O)cc(O)c4-c4cc3ccc4O)[C@H](O)c3ccc(c(Cl)c3)Oc3cc2cc(c3O[C@@H]2O[C@H](CO)[C@@H](O)[C@H](O)[C@H]2O[C@H]2C[C@](C)(N)[C@H](O)[C@H](C)O2)Oc2ccc(cc2Cl)[C@H]1O [VANCOMYCIN]
1 µg/mL: MIC90 [1] | MIC90 [2] | MIC90 [5] | MIC90 [6] | MIC90 [8] | MIC90 [10] | MIC90 [12] | MIC90 [15] | MIC90 [19] | MIC90 [21] | MIC90 [22] | MIC90 [24] | MIC90 [25] | MIC90 [27] | MIC90 [30] | MIC90 [33] | MIC90 [34] | MIC90 [37] | MIC90 [38] | MIC90 [39]
2 µg/mL: MIC90 [3] | MIC90 [4] | MIC90 [7] | MIC90 [9] | MIC90 [11] | MIC90 [13] | MIC90 [16] | MIC90 [17] | MIC90 [18] | MIC90 [20] | MIC90 [26] | MIC90 [31] | MIC90 [32] | MIC90 [35] | MIC90 [36]
> 64 µg/mL: MIC90 [28]
0.5 µg/mL: MIC90 [14] | MIC90 [23] | MIC90 [29]

FC(F)(F)c1ccc(CN2CCCN(CCc3cc(-c4cccs4)nc(-c4ccncc4)n3)CC2)cc1
50 - 100: Ratio [42] | Ratio [44] | Ratio [46]
8 µg/mL: MIC90 [7] | MIC90 [10] | MIC90 [31] | MIC90 [37]
2: Ratio [47]
>100: Ratio [40] | Ratio [43] | Ratio [45]
4 µg/mL: MIC90 [1] | MIC90 [2] | MIC90 [3] | MIC90 [4] | MIC90 [5] | MBC [41] | MIC90 [6] | MIC90 [8] | MIC90 [9] | MIC90 [11] | MIC90 [12] | MIC90 [13] | MIC90 [14] | MIC90 [15] | MIC90 [16] | MIC90 [17] | MIC90 [18] | MIC90 [19] | MIC90 [20] | MIC90 [21] | MIC90 [22] | MIC90 [23] | MIC90 [24] | MIC90 [25] | MIC90 [26] | MIC90 [27] | MIC90 [28] | MIC90 [29] | MIC90 [30] | MIC90 [32] | MIC90 [33] | MIC90 [34] | MIC90 [35] | MIC90 [36] | MIC90 [38] | MIC90 [39]
